In assay [1] the test system is ALOMY (blackgrass). Description: Pre-emergence herbicidal activity, cool season. In kind it is in vivo, Alopecurus myosuroides. To be noted: GR80 = lowest tested rate (300, 100, 30, 10 g/ha) with 80% or greater inhibition; approx. 14 days after treating; 18/13° C. The method in brief:
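Herbicidal efficacy was judged visually as percent inhibition compared with untreated plants some 14 days after treatment, giving GR80 over doses of 10 to 300 g/ha. Proso millet and crabgrass grew at 30/21 °C; blackgrass and wild buckwheat grew at 18/13 °C.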

In assay [2] the test system is ABUTH (velvetleaf). Put plainly: Pre-plant incorporated (PPI) herbicidal activity, warm season. To be noted: for inhibition at 10 g/ha / inhibition at 30 g/ha / inhibition at 100 g/ha / inhibition at 300 g/ha / inhibition at 900 g/ha: Abutilon theophrasti, read-out: Percent inhibition ABUTH; for inhibition at 10 g/ha / inhibition at 30 g/ha / inhibition at 100 g/ha / inhibition at 300 g/ha / inhibition at 900 g/ha / Percent inhibition ABUTH: PPI application; for PPI activity (GR80) ABUTH: pre-plant incorporated, GR80 = lowest tested rate with 80% or greater inhibition, approx. 14 days after treating, 30/21° C. It counts as in vivo, Abutilon theophrasti. As for the experimental part:
(§1) In another set of tests, the pre-plant incorporated (PPI) activity of compounds of this invention was evaluated on the same species as for the pre-emergence tests described above. In the PPI tests the following procedure, designed to simulate PPI application, was used.
(§2) A pre-prepared topsoil mixture (described above) was placed in a pot and compacted to a depth of 1.0 to 1.25 cm from the top of the pot. Seeds of each of several monocotyledonous and dicotyledonous annual plant species were placed on top of the soil. A sufficient quantity of soil to cover the seeds and level fill the pot was weighed into an open container. A known amount of the test compound was dissolved or suspended in an organic solvent and applied by spraying to this cover soil. The cover soil was thoroughly mixed to distribute the test compound throughout the cover soil, and was then applied as a cover layer over the seeds. Untreated soil was used as a cover layer for control pots. After treatment the plants were placed in a greenhouse where they received 0.64 cm of overhead irrigation. All subsequent watering consisted of a light overhead mist and/or subirrigation as needed for germination and growth. Tables 9 and 10 below relate to warm season plant species which were placed after pre-emergence treatment in a greenhouse with a 30/21° C. day/night temperature regime. Tables 11 and 12 below relates to cool season plant species placed after pre-emergence treatment in a greenhouse or growth chamber with an 18/13° C. day/night temperature regime. Only the compounds of Examples 1, 6, 8, 11, 13 and 15-20 were included in PPI tests.
(§3) Approximately 14 days after planting and treating, the plants were observed and herbicidal efficacy recorded as percent inhibition by comparison with untreated plants.

In assay [3] the test system is soybean (GLYMX). Description: Selectivity test, PPI, warm season crop. It counts as in vivo, Glycine max. To be noted: PPI application; for inhibition at 10 g/ha / inhibition at 30 g/ha / inhibition at 100 g/ha / inhibition at 300 g/ha / inhibition at 900 g/ha: Glycine max, read-out: Percent inhibition GLYMX. As for the experimental part: as §2, §3
Additional pre-emergence and PPI tests were conducted by the procedures described above, on warm and cool season weed species in the presence of crop species, to assess herbicidal selectivity. Crop species included in warm season tests were corn (Zea mays, ZEAMX), rice (Oryza sativa, ORYSA) and soybean (Glycine max, GLYMX). Crop species included in cool season tests were wheat (Triticum aestivum, TRZAW), barley (Hordeunm vulgare, HORVX) and oilseed rape (Brassica napus, BRSNS).
Tables 15 and 16 relate to pre-emergence and PPI tests respectively on warm season species. Table 17 relates to pre-emergence tests on cool season species.

For assay [4], the system named is SINAR (wild mustard). Description: Pre-emergence herbicidal activity, cool season. To be noted: lowest tested rate with 80% or greater inhibition; rates 300, 100, 30, 10 g/ha; about 14 days. It counts as in vivo, Sinapis arvensis. In a few lines:
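Seeds sown in sterilised fertilised topsoil received surface-applied compound in 50:50 acetone/water, typically at 300, 100, 30 and 10 g/ha, then greenhouse-grown at 30/21° C (warm-season species) or 18/13° C (cool-season species). Percent inhibition versus untreated plants was scored at about 14 days, giving GR80; an asterisk marks activity short of 80% at the top rate.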

In assay [5] the test system is AEGCY (jointed goatgrass). Put plainly: Post-emergence herbicidal activity, cool season. In kind it is in vivo, Aegilops cylindrica. To be noted: abraded plants sprayed at 300, 100, 30 and 10 g/ha; about 14 days after treatment. In a few lines:
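Seedlings grown from seed in topsoil pots were treated 9 to 14 days after planting, foliage first abraded with garnet particles, then sprayed with test compound in 50:50 acetone/water at 300, 100, 30 and 10 g/ha (3,100 l/ha). Kept at 18/13° C. day/night, percent inhibition versus abraded unsprayed controls was scored about 14 days later and GR80 assigned.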

The subject of assay [6] is SETFA (giant foxtail). Description: Pre-plant incorporated (PPI) herbicidal activity, warm season. It counts as in vivo, Setaria faberi. To be noted: for inhibition at 10 g/ha / inhibition at 30 g/ha / inhibition at 100 g/ha / inhibition at 300 g/ha / inhibition at 900 g/ha: Setaria faberi, read-out: Percent inhibition SETFA; for inhibition at 10 g/ha / inhibition at 30 g/ha / inhibition at 100 g/ha / inhibition at 300 g/ha / inhibition at 900 g/ha / Percent inhibition SETFA: PPI application; for PPI activity GR80, SETFA: pre-plant incorporated, lowest tested rate with 80% or greater inhibition, about 14 days. As for the experimental part:
as §1, §2, §3

What is called inhibition is the drop in the measured response relative to a control, in per cent.

Regarding `C=CCC(F)(F)S(=O)(=O)c1ncn(C(=O)N(CC)CC)n1` [Example 17, 1-(N,N-diethylcarbamoyl)-3-[(1,1-difluoro-3-butenyl)sulfonyl]-1,2,4-triazole], the “Pre-emergence activity (GR80) ALOMY” value in assay [1] was 100 g/ha. In addition, the inhibition at 10 g/ha was determined as 0% in assay [2] (10 g/ha), 0% in assay [3] (10 g/ha) and 100% in assay [6] (10 g/ha). The inhibition at 30 g/ha in assay [2] (30 g/ha) was found to be 0%; in assay [3] (30 g/ha), 0%; in assay [6] (30 g/ha) it was 100%. In addition, the inhibition at 100 g/ha in assay [2] (100 g/ha) came to 0%; in assay [3] (100 g/ha) it was 0%; in assay [6] (100 g/ha) it was 100%. The inhibition at 300 g/ha in assay [2] (300 g/ha) turned out to be 40%; in assay [3] (300 g/ha) it was 20%; in assay [6] (300 g/ha) it was 100%. For the same compound, the inhibition at 900 g/ha stood at 100% in assay [2] (900 g/ha), 80% in assay [3] (900 g/ha) and 100% in assay [6] (900 g/ha). The “PPI activity (GR80) ABUTH” value in assay [2] is listed as 100 g/ha. Moreover, in assay [4], the “Pre-emergence activity GR80, SINAR” value is 100 g/ha. Besides, the “Post-emergence activity GR80, AEGCY” value in assay [5] was “[empty]”. Moreover, the “PPI activity GR80, SETFA” value in assay [6] was 10 g/ha.

Take `C=C(C)CC(F)(F)S(=O)(=O)c1ncn(C(=O)N(CC)CC)n1` [Example 18]: the “Pre-emergence activity (GR80) ALOMY” value in assay [1] is recorded as 300 g/ha. Also, the inhibition at 10 g/ha in assay [2] (10 g/ha) was found to be 0%; in assay [3] (10 g/ha) it was 0%; in assay [6] (10 g/ha) it was 100%. For the same compound, the inhibition at 30 g/ha came to 0% in assay [2] (30 g/ha), 0% in assay [3] (30 g/ha) and 90% in assay [6] (30 g/ha). Besides, the inhibition at 100 g/ha turned out to be 0% in assay [2] (100 g/ha), 0% in assay [3] (100 g/ha) and 90% in assay [6] (100 g/ha). The inhibition at 300 g/ha is 70% in assay [2] (300 g/ha), 0% in assay [3] (300 g/ha) and 100% in assay [6] (300 g/ha). For the same compound, the values for the inhibition at 900 g/ha in assay [2] (900 g/ha), in assay [3] (900 g/ha) and in assay [6] (900 g/ha) were 90%, 50% and 100%, respectively. Moreover, the “PPI activity (GR80) ABUTH” value in assay [2] stood at 100 g/ha. For the same compound, the “Pre-emergence activity GR80, SINAR” value in assay [4] stood at 300 g/ha. In addition, the “Post-emergence activity GR80, AEGCY” value in assay [5] is “[empty]”. For the same compound, the “PPI activity GR80, SETFA” value in assay [6] was determined as 100 g/ha.

Take `C=C(Br)CC(F)(F)S(=O)(=O)c1ncn(C(=O)N(CC)CC)n1` [Example 19]: the “Pre-emergence activity (GR80) ALOMY” value in assay [1] turned out to be 100 g/ha. Also, the values for the inhibition at 10 g/ha in assay [2] (10 g/ha), in assay [3] (10 g/ha) and in assay [6] (10 g/ha) were 0%, 0% and 90%, respectively. The inhibition at 30 g/ha in assay [2] (30 g/ha) came out at 0%; in assay [3] (30 g/ha), 0%; in assay [6] (30 g/ha), 100%. The figures for the inhibition at 100 g/ha in assay [2] (100 g/ha), in assay [3] (100 g/ha) and in assay [6] (100 g/ha) were 0%, 0% and 90%, respectively. Besides, the values for the inhibition at 300 g/ha in assay [2] (300 g/ha), in assay [3] (300 g/ha) and in assay [6] (300 g/ha) were 0%, 0% and 100%, respectively. Also, the figures for the inhibition at 900 g/ha in assay [2] (900 g/ha), in assay [3] (900 g/ha) and in assay [6] (900 g/ha) were 60%, 20% and 100%, respectively. Further, the “PPI activity (GR80) ABUTH” value in assay [2] came to 30 g/ha. The “Pre-emergence activity GR80, SINAR” value in assay [4] is reported as 30 g/ha. The “Post-emergence activity GR80, AEGCY” value in assay [5] was “[empty]”. Moreover, the “PPI activity GR80, SETFA” value in assay [6] came to 30 g/ha.

Consider `C=C(CC(F)(F)S(=O)(=O)c1ncn(C(=O)N(CC)CC)n1)C[Si](C)(C)C` [Example 20], for which the “Pre-emergence activity (GR80) ALOMY” value in assay [1] was 100 g/ha. Also, the “Percent inhibition ABUTH” value in assay [2] (10 g/ha) came to 0%; in assay [2] (30 g/ha) it was 0%; in assay [2] (100 g/ha), 0%; in assay [2] (300 g/ha), 30%; in assay [2] (900 g/ha), 80%. Also, in assay [2], the “PPI activity (GR80) ABUTH” value was 300 g/ha. Moreover, the “Percent inhibition GLYMX” value in assay [3] (10 g/ha) is listed as 0%; in assay [3] (30 g/ha), 0%; in assay [3] (100 g/ha), 0%; in assay [3] (300 g/ha), 0%; in assay [3] (900 g/ha), 30%. Moreover, in assay [4], the “Pre-emergence activity GR80, SINAR” value is “[empty]”. Besides, the “Post-emergence activity GR80, AEGCY” value in assay [5] is “[empty]”. Further, the “Percent inhibition SETFA” value in assay [6] (10 g/ha) was 0%; in assay [6] (30 g/ha), 70%; in assay [6] (100 g/ha), 99%; in assay [6] (300 g/ha), 90%; in assay [6] (900 g/ha) it was 100%. Moreover, the “PPI activity GR80, SETFA” value in assay [6] stood at 100 g/ha.

These data come from patent US6461997B1, “Triazole sulfones having herbicidal activity” (Monsanto Technology LLC, priority 1999, dated 2002).
